{"source": "patent US20210379001A1", "about": "“SUPPLEMENT INCLUDING GAMMA-AMINOBUTYRIC ACID FOR RESTORING GROWTH HORMONE LEVELS” (1198966 B.C. LTD., priority 2020, published 2021)", "origin": "cited, not measured here", "test_system": "GABA levels in rat striatal tissue and striatal extracellular fluid", "data": [{"smiles": "NC(=O)CC[C@H](N)C(=O)O", "note": "[L-Glutamine]", "values": [{"measurement": "striatal GABA levels", "setting": "2,5 h after oral 2.0 g/kg of glutamine, vehicle-treated rats 1.76+/−0.04", "result": "2.00 ± 0.15", "unit": "µmol/g"}, {"measurement": "response evoked by NMDA, over baseline", "setting": "ECF GABA, NMDA alone 70%, P<0.05", "result": 120, "unit": "%"}, {"measurement": "increase of ECF GABA concentrations", "setting": "rat striatal extracellular fluid, P<0.05", "result": 30, "unit": "%"}]}]}
